The results in this text go back to ChEMBL document CHEMBL4414647, “Austalides, Osteoclast Differentiation Inhibitors from a Marine-Derived Strain of the Fungus Penicillium rudallense” (J Nat Prod, 2019).

In data set [1] the test system is BMDM. In words: Cytotoxicity against ICR mouse bone marrow macrophage assessed as reduction in cell viability at 10 uM incubated for 3 days by WST-8 assay. Type of data set: cell-based. The settings on record: 72 h. (In general: Tetrazolium assays rely on reduction of a dye to a coloured formazan, in cell work by metabolically active cells.)
A short description of data set [2]: Inhibition of RANKL-induced osteoclast differentiation in ICR mouse bone marrow macrophage assessed as reduction in multinucleated TRAP+ cells preincubated for 3 days for RANKL stimulation followed by compound addition and measured after 1 day by TRAP staining based microscopy. The settings on record: BMDM, read-out: ED50 (the source's name). Type of data set: functional.

In data set [3] the test system is BMDM. The data set can be described thus: Cytotoxicity against ICR mouse bone marrow macrophage assessed as reduction in cell viability at 1 to 10 uM incubated for 3 days by WST-8 assay. It counts as cell-based. The settings on record: 72 h.
The subject of data set [4] is BMDM. In words: Inhibition of RANKL-induced osteoclast differentiation in ICR mouse bone marrow macrophage assessed as reduction in multinucleated TRAP+ cells at 10 uM preincubated for 3 days for RANKL stimulation followed by compound addition and measured after 1 day by TRAP staining based microscopy. It counts as functional, cell-based.

Each structure is given as a SMILES string. pEC50: −log10 of the molar value. The source made the active and inactive calls. The calls are words filed in the database; no cut-off is given here.

Consider `Cc1c2c(c(O)c3c1O[C@@]1(C)CC[C@H]4C(C)(C)C(=O)CC[C@]4(C)[C@H]1C3)C(=O)OC2`, for which the Activity entry with BMDM [1] was “Toxic”. The pEC50 in data set [2] is 5.55 to 5.72. For `COc1c2c(c(C)c3c1C(=O)OC3)O[C@@]1(C)C[C@@H](O)[C@H]3C(C)(C)C(=O)CC[C@]3(C)[C@H]1C2`, the pEC50 in data set [2] was 5.55 to 5.72. In the data set on BMDM [3], the Activity entry was “Non-Toxic”. As for `C=C(C)[C@@H]1CC[C@]2(C)Oc3c(C)c4c(c(OC)c3C[C@@H]2[C@@]1(C)CCC(=O)OC)C(=O)OC4`, in the data set with BMDM [4], the inhibition result was “inactive”. For the molecule `COc1c2c(c(C)c3c1C(=O)OC3)O[C@@]1(C)CC[C@H]3C(C)(C)[C@@H](O)CC[C@]3(C)[C@H]1C2`, the pEC50 in data set [2] is 5.55 to 5.72. Also, the Activity entry in the data set with BMDM [3] is “Non-Toxic”. In the case of `CC(C)=CCC/C(C)=C/CC/C(C)=C/Cc1c(O)c(C)c2c(c1O)C(=O)OC2`, the inhibition result in the data set on BMDM [4] was “inactive”. Consider `COC(=O)CC[C@]1(C)[C@H]2Cc3c(c(C)c4c(c3OC)C(=O)OC4)O[C@@]2(C)CC[C@H]1C(C)(C)O`, for which the pEC50 in data set [2] was 5.55 to 5.72. Besides, the Activity entry in the data set with BMDM [3] was “Non-Toxic”. On the same counts, the results for `COc1c2c(c(C)c3c1C(=O)OC3)O[C@@]1(C)CC[C@@]3(O)C(C)(C)C(=O)CC[C@]3(C)[C@H]1C2` are 5.55 to 5.72 and “Non-Toxic”. Turning to `COc1c2c(c(C)c3c1C(=O)OC3)O[C@@]1(C)CC[C@@H](C(C)(C)O)[C@](C)(CCC(=O)O)[C@H]1C2`, the inhibition entry with BMDM [4] is “inactive”.

`C/C(=C\Cc1c(O)c(C)c2c(c1O)C(=O)OC2)CC/C=C(\C)CCCC(C)(C)O`: the inhibition entry with BMDM [4] is “inactive”. On the same count and under the same terms, the same measure for `C=C(C)[C@@H]1[C@H](O)C[C@]2(C)Oc3c(C)c4c(c(OC)c3C[C@@H]2[C@@]1(C)CCC(=O)OC)C(=O)OC4`: “inactive”. Consider `COc1c2c(c(C)c3c1C(=O)OC3)O[C@@]1(C)CC[C@H]3C(C)(C)OC(=O)CC[C@]3(C)[C@H]1C2`, for which the pEC50 in data set [2] is 5.55 to 5.72. For the same molecule, the Activity entry in the data set on BMDM [3] is listed as “Non-Toxic”.

On to `COC(=O)CC[C@]1(C)[C@H]2Cc3c(c(C)c4c(c3OC)C(=O)OC4)O[C@@]2(C)C[C@@H](O)[C@H]1C(C)(C)O`, for which the inhibition entry in the data set with BMDM [4] was “inactive”.
